Some results are limits rather than exact numbers.

For the assay, the system named is rgRSV224 virus. The assay is described as follows: Antiviral activity: inhibition of rgRSV224 (GFP-expressing RSV) replication in HeLa cells. It counts as cell-based, respiratory syncytial virus. The conditions noted are these: human respiratory syncytial virus, HeLa, 72 h, read-out: pEC50, rgRSV224 (MOI=0.02) in HeLa cells, GFP expression three days post-virus exposure (converted). On the procedure:
Black 96-well clear-bottom microtiter plates (Corning, Amsterdam, The Netherlands) were filled in duplicate using a customized robot system with serial 4-fold dilutions of compound in a final volume of 50 μl culture medium [RPMI medium without phenol red, 10% FBS, 0.04% gentamycin (50 mg/ml) and 0.5% DMSO]. Then, 100 μl of a HeLa cell suspension (5×10^4 cells/ml) in culture medium was added to each well followed by the addition of 50 μl rgRSV224 (MOI=0.02) virus in culture medium using a multidrop dispenser (Thermo Scientific, Erembodegem, Belgium). rgRSV224 virus is an engineered virus that includes an additional GFP gene (Hallak et al, 2000) and was in-licensed from the NIH (Bethesda, Md., USA). Medium, virus- and mock-infected controls were included in each test. Cells were incubated at 37° C. in a 5% CO2 atmosphere. Three days post-virus exposure, viral replication was quantified by measuring GFP expression in the cells by a MSM laser microscope (Tibotec, Beerse, Belgium). The EC50 was defined as the 50% inhibitory concentration for GFP expression. In parallel, compounds were incubated for three days in a set of white 96-well microtitier plates (Corning) and the cytotoxicity of compounds in HeLa cells was determined by measuring the ATP content of the cells using the ATPlite kit (PerkinElmer, Zaventem, Belgium) according to the manufacturer's instructions. The CC50 was defined as the 50% concentration for cytotoxicity. SI is calculated as CC50/EC50.
As to `CS(=O)(=O)CCCn1c(CN2C(=O)C3(CCOCC3)c3ccncc32)nc2cc(Cl)ccc21` [Compound 38, 1′-((5-chloro-1-(3-(methylsulfonyl)propyl)-1H-benzo[d]-imidazol-2-yl)methyl)-2,3,5,6-tetrahydrospiro[pyran-4,3′-pyrrolo[2,3-c]pyridin]-2′(1′H)-one], the EC50 is 0.158 nM. With `CC(C)(C)OC(=O)N1CCC2(CC1)C(=O)N(Cc1nc3cc(Cl)ccc3n1CCCS(C)(=O)=O)c1ccccc12` [Compound 39, tert-butyl 1-((5-chloro-1-(3-(methylsulfonyl)propyl)-1H-benzo[d]imidazol-2-yl)methyl)-2-oxospiro[indoline-3,4′-piperidine]-1′-carboxylate] the figure was 0.631 nM; with `CS(=O)(=O)CCCn1c(CN2C(=O)C3(CCOCC3)c3ccccc32)nc2cc(Cl)ccc21` [Compound 40, 1-((5-chloro-1-(3-(methylsulfonyl)propyl)-1H-benzo[d]-imidazol-2-yl)methyl)-2′,3′,5′,6′-tetrahydrospiro[indoline-3,4′-pyran]-2-one], 2.51 nM; with `CS(=O)(=O)CCCn1c(CN2C(=O)C3(CCOCC3)c3cnccc32)nc2cc(Cl)ccc21` [Compound 41, 1-((5-chloro-1-(3-(methylsulfonyl)propyl)-1H-benzo[d]-imidazol-2-yl)methyl)-2,3,5,6-tetrahydrospiro[pyran-4,3′-pyrrolo[3,2-c]pyridin]-2′(1′H)-one], 45.7 nM. To `CC(=O)N1CCC2(CC1)C(=O)N(Cc1nc3cc(Cl)ccc3n1CCCS(C)(=O)=O)c1cnccc12` [Compound 42, 1-acetyl-1′-((5-chloro-1-(3-(methylsulfonyl)propyl)-1H-benzo[d]imidazol-2-yl)methyl)spiro[piperidine-4,3′-pyrrolo-[2,3-c]pyridin]-2′(1′H)-one] belongs under 0.158 nM; to `O=C(Oc1ccc(F)cc1)N1CC2(C1)C(=O)N(Cc1nc3cc(Cl)ccc3n1CCCC(F)(F)F)c1ccccc12` [Compound 43, 4-fluorophenyl 1′-((5-chloro-1-(4,4,4-trifluorobutyl)-1H-benzo[d]imidazol-2-yl)methyl)-2′-oxospiro[azetidine-3,3′-indoline]-1-carboxytale], 0.251 nM. As for `CC(C)(C)OC(=O)N1CC2(C1)C(=O)N(Cc1nc3cc(Cl)ccc3n1CCCC(F)(F)F)c1ccccc12` [Compound 44, tert-butyl 1′-((5-chloro-1-(4,4,4-trifluorobutyl)-1H-benzo[d]imidazol-2-yl)methyl)-2′-oxospiro[azetidine-3,3′-indoline]-1-carboxylate], the EC50 was 0.251 nM.

In the case of `CC(C)COC(=O)N1CC2(C1)C(=O)N(Cc1nc3cc(Cl)ccc3n1CCCC(F)(F)F)c1ccccc12` [Compound 45, isobutyl 1′-((5-chloro-1-(4,4,4-trifluorobutyl)-1H-benzo[d]-imidazol-2-yl)methyl)-2′-oxospiro[azetidine-3,3′-indoline]-1-carboxylate], the EC50 is 0.398 nM.

As for `O=C1N(Cc2nc3cc(Cl)ccc3n2CCCC(F)(F)F)c2ccccc2C12CNC2` [Compound 46, 1′-((5-chloro-1-(4,4,4-trifluorobutyl)-1H-benzo[d]imidazol-2-yl)methyl)spiro[azetidine-3,3-indolin]-2′-one], the EC50 is 0.631 nM. As for `O=C(OC1CCCC1)N1CCC2(CC1)C(=O)N(Cc1nc3cc(Cl)ccc3n1CCCC(F)(F)F)c1ccccc12` [Compound 47, Cyclopentyl 1-((5-chloro-1-(4,4,4-trifluorobutyl)-1H-benzo[d]imidazol-2-yl)methyl)-2-oxospiro[indoline-3,4′-piperidine]-1′-carboxylate], the EC50 was 1.58 nM. With `CC(C)(C)OC(=O)N1CCC2(CC1)C(=O)N(Cc1nc3cc(Cl)ccc3n1CCCC(F)(F)F)c1ccccc12` [Compound 48], the EC50 is 2.51 nM. With `O=C1N(Cc2nc3cc(Cl)ccc3n2CCCC(F)(F)F)c2ccccc2C12CCNCC2` [Compound 49, 1-((5-chloro-1-(4,4,4-trifluorobutyl)-1H-benzo[d]imidazol-2-yl)methyl) spiro[indoline-3,4′-piperidin]-2-one] the figure was 5.01 nM; with `O=C(OCc1ccccc1)N1CCC2(CC1)C(=O)N(Cc1nc3cc(Cl)ccc3n1CCCC(F)(F)F)c1ccccc12` [Compound 50, benzyl 1-((5-chloro-1-(4,4,4-trifluorobutyl)-1H-benzo[d]-imidazol-2-yl)methyl)-2-oxospiro[indoline-3,4′-piperidine]-1′-carboxylate], 10 nM.

Turning to `O=C1N(Cc2nc3cc(Cl)ccc3n2CCCC(F)(F)F)c2ccccc2C12CCN(Cc1ccccc1)CC2` [Compound 51, 1′-benzyl-1-((5-chloro-1-(4,4,4-trifluorobutyl)-1H-benzo[d]-imidazol-2-yl)methyl)spiro[indoline-3,4′-piperidin]-2-one], the EC50 was 63.1 nM. Regarding `O=C1N(Cc2nc3cc(Cl)ccc3n2CCCC(F)(F)F)c2ccccc2C12CCOCC2` [Compound 52, 1-((5-chloro-1-(4,4,4-trifluorobutyl)-1H-benzo[d]imidazol-2-yl)methyl)-2′,3′,5′,6′-tetrahydrospiro[indoline-3,4′-pyran]-2-one], the EC50 was 2.51 nM.

On to `CC(C)(C)OC(=O)N1CCC2(CC1)C(=O)N(Cc1nc3cc(Cl)ccc3n1CCCC#N)c1cnccc12` [Compound 53, tert-butyl 1′-((5-chloro-1-(3-cyanopropyl)-1H-benzo[d]-imidazol-2-yl)methyl)-2′-oxo-1′,2′-dihydrospiro[piperidine-4,3′-pyrrolo[2,3-c]pyridine]-1-carboxylate], for which the EC50 is under 0.158 nM. Turning to `CS(=O)(=O)CCCn1c(CN2C(=O)C3(CCCC3)c3ccncc32)cc2cc(Cl)ccc21` [Compound 54, 1′-({5-chloro-1-[3-(methylsulfonyl)propyl]-1H-indol-2-yl}methyl)spiro [cyclopentane-1,3′-pyrrolo[2,3-c]pyridin]-2′(1′H)-one], the EC50 was 1.58 nM. Regarding `CS(=O)(=O)CCCn1c(CN2C(=O)C3(CCOCC3)c3cnccc32)cc2cc(Cl)ccc21` [Compound 57], the EC50 was 83.2 nM. With `CC(C)(C)OC(=O)N1CC2(C1)C(=O)N(Cc1cc3cc(Cl)ccc3n1CCCC#N)c1ccccc12` [Compound 58, tert-butyl 1′-{[5-chloro-1-(3-cyanopropyl)-1H-indol-2-yl]-methyl}-2′-oxo-1′,2′-dihydro-1H-spiro[azetidine-3,3′-indole]-1-carboxylate] the figure was under 0.2 nM. Regarding `N#CCCCn1c(CN2C(=O)C3(CNC3)c3ccccc32)cc2cc(Cl)ccc21` [Compound 59, 4-{5-chloro-2-[(2′-oxospiro[azetidine-3,3′-indol]-1′(2′H )-yl)-methyl]-1H-indol-1-yl}butanenitrile], the EC50 is 5.01 nM. Take `COC(=O)N1CC2(C1)C(=O)N(Cc1cc3cc(Cl)ccc3n1CCCC#N)c1ccccc12` [Compound 60, 1′-{[5-chloro-1-(3-cyanopropyl)-1H-indol-2-yl]methyl}-2′-oxo-1′,2′-dihydro-1H-spiro[azetidine-3,3′-indole]-1-carboxylate]: the EC50 is 0.251 nM. As for `N#CCCCn1c(CN2C(=O)C3(CN(S(=O)(=O)C4CC4)C3)c3ccccc32)cc2cc(Cl)ccc21` [Compound 61, 4-(5-chloro-2-{[1-(cyclopropylsulfonyl)-2′-oxospiro-[azetidine-3,3′-indol]-1′(2′H)-yl]methyl}-1H-indol-1-yl)-butanenitrile], the EC50 is 0.398 nM.

Values taken from patent publication US9617289B2, “RSV antiviral compounds” (JANSSEN R&D IRELAND, priority 2012, dated 2017).
